The source of these data is ChEMBL document CHEMBL3351739, “Design, synthesis and biological evaluation of 6-(nitroimidazole-1H-alkyloxyl)-4-anilinoquinazolines as efficient EGFR inhibitors exerting cytotoxic effects both under normoxia and hypoxia” (Eur J Med Chem, 2015).

For data set [1], the target named is Epidermal growth factor receptor (Homo sapiens, UniProt P00533). In words: Inhibition of wild type EGFR (unknown origin) by Z'-Lyte kinase assay.
The subject of data set [2] is HT-29. In words: Cytotoxicity against human HT-29 cells after 72 hrs under hypoxia conditions by SRB assay. The settings on record: HT-29, 72 h. The data set is classed as functional, cell-based.
Data set [3] relates to HT-29. Briefly: Cytotoxicity against human HT-29 cells after 72 hrs under normoxia conditions by SRB assay. In kind it is functional, cell-based. The settings on record: HT-29, 72 h.
The nature of data set [4]: Metabolic stability in mouse liver microsomes assessed as compound remaining at 5 uM after 30 mins under normoxia conditions in presence of NADPH by HPLC method. The data set is classed as ADME. The settings on record: read-out: Stability.
Data set [5] can be described thus: Metabolic stability in mouse liver microsomes assessed as compound remaining at 5 uM after 30 mins under hypoxia conditions in presence of NADPH by HPLC method. The data set is classed as ADME. To be noted: read-out: Stability.
Data set [6] in a line: Reductive drug activation assessed as reactive radical formation at 4.1 umol in pH 7.4 PBS in presence of zinc dust and ammonium chloride by HPLC-Q-ToF-MS method. To be noted: buffer.

Bounds are passed on as bounds.

Sequence of Epidermal growth factor receptor (P00533 whole entry): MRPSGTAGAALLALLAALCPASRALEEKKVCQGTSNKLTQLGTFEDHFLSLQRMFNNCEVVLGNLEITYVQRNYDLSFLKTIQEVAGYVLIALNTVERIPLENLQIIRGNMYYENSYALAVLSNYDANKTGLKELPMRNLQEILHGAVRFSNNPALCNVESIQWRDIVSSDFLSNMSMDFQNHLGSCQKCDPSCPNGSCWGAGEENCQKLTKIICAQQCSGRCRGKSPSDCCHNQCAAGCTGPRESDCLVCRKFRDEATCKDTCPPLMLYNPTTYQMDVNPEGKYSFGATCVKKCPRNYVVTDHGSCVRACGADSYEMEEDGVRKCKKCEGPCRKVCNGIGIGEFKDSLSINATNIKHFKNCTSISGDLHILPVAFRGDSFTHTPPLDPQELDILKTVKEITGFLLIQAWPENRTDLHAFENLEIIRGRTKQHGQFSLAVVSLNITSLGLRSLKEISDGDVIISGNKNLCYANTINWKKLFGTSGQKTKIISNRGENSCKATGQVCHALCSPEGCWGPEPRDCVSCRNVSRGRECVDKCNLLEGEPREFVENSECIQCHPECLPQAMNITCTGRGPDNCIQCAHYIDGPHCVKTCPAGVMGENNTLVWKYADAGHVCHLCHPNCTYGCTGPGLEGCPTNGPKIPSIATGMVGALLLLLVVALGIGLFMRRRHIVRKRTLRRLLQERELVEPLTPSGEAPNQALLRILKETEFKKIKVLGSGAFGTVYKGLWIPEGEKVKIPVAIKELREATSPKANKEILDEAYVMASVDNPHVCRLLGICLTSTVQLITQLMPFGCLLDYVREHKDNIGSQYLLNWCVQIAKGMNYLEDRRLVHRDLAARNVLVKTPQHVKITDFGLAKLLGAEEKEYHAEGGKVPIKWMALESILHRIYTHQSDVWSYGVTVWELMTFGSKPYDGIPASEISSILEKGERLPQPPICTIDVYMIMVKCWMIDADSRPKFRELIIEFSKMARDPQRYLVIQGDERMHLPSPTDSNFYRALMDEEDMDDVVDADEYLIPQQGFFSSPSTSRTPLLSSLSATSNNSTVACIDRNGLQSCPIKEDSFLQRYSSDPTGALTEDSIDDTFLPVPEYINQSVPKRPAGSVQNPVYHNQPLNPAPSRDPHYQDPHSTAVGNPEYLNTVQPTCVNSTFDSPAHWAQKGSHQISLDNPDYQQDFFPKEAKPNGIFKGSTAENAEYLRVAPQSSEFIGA

In the case of `COc1cc2ncnc(Nc3ccc(F)c(Cl)c3)c2cc1OCCn1ccnc1[N+](=O)[O-]`, the IC50 in data set [1] was 0.00305 µM; in the data set with HT-29 [2], 10 µM; with HT-29 [3] it was greater than 50 µM.
On the same counts, the results for `COc1cc2ncnc(Nc3ccc(F)c(Cl)c3)c2cc1OCCCn1ccnc1[N+](=O)[O-]` are 0.00089 µM, 7.17 µM and 8.39 µM.
`COc1cc2ncnc(Nc3ccc(F)c(Cl)c3)c2cc1OCCCCn1ccnc1[N+](=O)[O-]`: the remaining at 0.5 h, 5 µM was 70% in data set [4] and less than 10% in data set [5]. The figures for the IC50 (in data set [1]; in the data set with HT-29 [2]; in the data set on HT-29 [3]) were 0.00047 µM, 1.62 µM and 2.21 µM, respectively. Moreover, in data set [6], the Drug metabolism entry is listed as “metabolite_detected”.
In the case of `COc1cc2ncnc(Nc3ccc(F)c(Cl)c3)c2cc1OCCCCCn1ccnc1[N+](=O)[O-]`, the values for the IC50 (in data set [1]; in the data set on HT-29 [2]; in the data set with HT-29 [3]) were 0.00051 µM, 5.59 µM and 17.6 µM, respectively.
With `COc1cc2ncnc(Nc3ccc(F)c(Cl)c3)c2cc1OCCCCCCn1ccnc1[N+](=O)[O-]`, the IC50 was determined as 9.81 µM with HT-29 [2] and 12.9 µM in the data set with HT-29 [3].
Consider `COc1cc2ncnc(Nc3cccc(Br)c3)c2cc1OCCCn1ccnc1[N+](=O)[O-]`, for which the IC50 in data set [1] amounted to 0.00066 µM; in the data set with HT-29 [2] it was 4.01 µM; with HT-29 [3] it was 4.48 µM.
For `C#Cc1cccc(Nc2ncnc3cc(OC)c(OCCCn4ccnc4[N+](=O)[O-])cc23)c1`, the figures for the IC50 (in data set [1]; in the data set on HT-29 [2]; in the data set with HT-29 [3]) were 0.00108 µM, 5.53 µM and 5.55 µM, respectively.
On the same counts, the results for `C#Cc1cccc(Nc2ncnc3cc(OC)c(OCCCCn4ccnc4[N+](=O)[O-])cc23)c1` are 0.00056 µM, 6.9 µM and 10.1 µM.
On the same counts, the results for `C#Cc1cccc(Nc2ncnc3cc(OC)c(OCCCCCn4ccnc4[N+](=O)[O-])cc23)c1` are 0.00049 µM, 3.05 µM and 3.55 µM.
On the same counts, the results for `C#Cc1cccc(Nc2ncnc3cc(OC)c(OCCCCCCn4ccnc4[N+](=O)[O-])cc23)c1` are 0.0005 µM, 3.46 µM and 2.93 µM.
For the compound `COc1cc2ncnc(Nc3ccc(OCc4cccc(F)c4)c(Cl)c3)c2cc1OCCCn1ccnc1[N+](=O)[O-]`, the IC50 in data set [1] was found to be 0.0383 µM; in the data set on HT-29 [2], 20 µM; with HT-29 [3], 15.5 µM.
Regarding `COc1cc2ncnc(Nc3ccc(OCc4cccc(F)c4)c(Cl)c3)c2cc1OCCCCn1ccnc1[N+](=O)[O-]`, the results for the IC50 (in data set [1]; with HT-29 [2]; in the data set with HT-29 [3]) were 0.0285 µM, 2.07 µM and 1.87 µM, respectively.
`COc1cc2ncnc(Nc3ccc(OCc4cccc(F)c4)c(Cl)c3)c2cc1OCCCCCn1ccnc1[N+](=O)[O-]`: the values for the IC50 (in data set [1]; in the data set on HT-29 [2]; with HT-29 [3]) were 0.0512 µM, 1.36 µM and 3.09 µM, respectively.
For `COc1cc2ncnc(Nc3ccc(OCc4cccc(F)c4)c(Cl)c3)c2cc1OCCCCCCn1ccnc1[N+](=O)[O-]`, the IC50 is 0.0151 µM in data set [1], 24.3 µM with HT-29 [2] and greater than 50 µM in the data set on HT-29 [3].
On the same counts, the results for `COc1cc2ncnc(Nc3ccc(F)c(Cl)c3)c2cc1OCCn1c([N+](=O)[O-])cnc1C` are 0.0049 µM, greater than 50 µM and greater than 50 µM.
In the case of `COc1cc2ncnc(Nc3ccc(F)c(Cl)c3)c2cc1OCCCn1c([N+](=O)[O-])cnc1C`, the IC50 in data set [1] was 0.00343 µM; with HT-29 [2], 11.5 µM; with HT-29 [3] it was 23.2 µM.
As for `COc1cc2ncnc(Nc3ccc(F)c(Cl)c3)c2cc1OCCCCn1c([N+](=O)[O-])cnc1C`, the IC50 turned out to be 0.00053 µM in data set [1], 9.98 µM in the data set with HT-29 [2] and 8.21 µM in the data set on HT-29 [3].
On the same counts, the results for `COc1cc2ncnc(Nc3cccc(Br)c3)c2cc1OCCCn1c([N+](=O)[O-])cnc1C` are 0.00118 µM, 5.41 µM and 15.7 µM.
`COc1cc2ncnc(Nc3ccc(F)c(Cl)c3)c2cc1OCCCN1CCOCC1` [GEFITINIB]: the remaining at 0.5 h, 5 µM in data set [4] and in data set [5] was greater than 90% in each case.
Take `Nc1n[n+]([O-])c2ccccc2[n+]1[O-]` [TIRAPAZAMINE]: the IC50 is 9.45 µM in the data set on HT-29 [2] and greater than 50 µM in the data set on HT-29 [3].
